In US12091399B2, “Phenyltetrazole derivatives as plasma kallikrein inhibitors” (Boehringer Ingelheim International GmbH, priority 2018, dated 2024):
Square brackets hold non-standard residues; d marks the D form. Peptide text beside a SMILES is read from it. * marks the point of attachment. pNA = O=[N+]([O-])c1ccc(N*)cc1; AMC = Cc1cc(=O)oc2cc(N*)ccc12; Cha = N[CH](CC1CCCCC1)C(=O)O; Cbz = O=C(OCc1ccccc1)*; Abu = CC[CH](N)C(=O)O; Ms = CS(=O)(=O)*

Assays:
Type in all cases: biochemical
[1] = target: T1, Human PKK (Homo sapiens (Human), UniProt P03952); test: Inhibition of PKK using an endpoint assay (human PKK); details: 1 h at rt, 0.10 μM H-Pro-Phe-Arg-AMC
T1 sequence (P03952 391-638): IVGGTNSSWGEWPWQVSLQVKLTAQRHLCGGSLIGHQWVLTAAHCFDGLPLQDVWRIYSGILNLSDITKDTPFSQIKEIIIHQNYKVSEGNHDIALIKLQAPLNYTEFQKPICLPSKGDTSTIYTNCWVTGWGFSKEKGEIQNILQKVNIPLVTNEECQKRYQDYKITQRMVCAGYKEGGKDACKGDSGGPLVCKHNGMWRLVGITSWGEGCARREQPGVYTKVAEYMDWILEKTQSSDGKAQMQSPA
T1 sequence (P03952 20-390 partner): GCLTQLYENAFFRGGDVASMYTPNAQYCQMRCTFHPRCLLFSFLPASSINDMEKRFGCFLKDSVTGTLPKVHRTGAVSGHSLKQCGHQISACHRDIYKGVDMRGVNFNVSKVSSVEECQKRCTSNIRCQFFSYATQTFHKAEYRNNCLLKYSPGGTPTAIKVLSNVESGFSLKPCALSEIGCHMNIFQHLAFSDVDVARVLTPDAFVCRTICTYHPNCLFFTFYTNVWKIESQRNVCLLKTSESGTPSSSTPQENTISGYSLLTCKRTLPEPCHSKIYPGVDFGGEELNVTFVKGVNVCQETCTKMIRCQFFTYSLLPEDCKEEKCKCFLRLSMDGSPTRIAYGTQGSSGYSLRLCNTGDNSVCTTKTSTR
Method: (§1) The ability of compounds of formula (I) to inhibit plasma kallikrein (PKK), Factor XIIa (FXIIa), Factor XIa (FXIa), Factor Xa (FXa), Factor IIa (alpha-thrombin; FIIa), plasmin, trypsin, tissue kallikrein 1 (TK1), Factor Vila (FVIIa), or FVIIa complexed with Tissue Factor, phospholipids and CaCl2) (FVIIa/TF/PL/CaCl2) was determined using the following biochemical assays in assay buffer (100 mM Tris, 150 mM NaCL, adjusted to a pH of 7.8 with HCl, and containing 0.1% (w/v) BSA and 0.05% (v/v) Tween20) in the presence of 1% (v/v) DMSO:
Subsequently, PPACK II (Calbiochem) was added as a stop solution to achieve a final concentration of 1 μM and fluorescence was measured using an Envision Reader (PerkinElmer) with the wavelength excitation setting of 355 nm and the wavelength emission setting of 460 nm. The number of the compound corresponds to the number of the Example in the experimental section.

[2] = target: PKK in kaolin activated human platelet poor plasma (Homo sapiens (Human), UniProt P03952); test: Inhibition of PKK in kaolin activated human PPP; details: global fit over 25, 75, 250, 750 μg/mL kaolin, 37° C.
Sequence of PKK in kaolin activated human platelet poor plasma (P03952 391-638): as the sequence (P03952 391-638) above
Sequence of PKK in kaolin activated human platelet poor plasma (P03952 20-390 partner): as the sequence (P03952 20-390 partner) above
Method: Platelet poor plasma (PPP) obtained from human wholeblood, anticoagulated with Na-Citrate, was incubated with various concentrations of the test compound together with either 25, 75, 250, or 750 μg/mL kaolin in assay buffer for 20 min at 37° C. such that for each kaolin dose used a concentration response was obtained for the test compound.
The number of the compound corresponds to the number of the Example in the experimental section.

[3] = target: T1, Human PKK; test: Inhibition of PKK (Ki), kinetic assay; details: 24° C., 0.25 mM H-Pro-Phe-Arg-AMC, IC50 corrected for KM
Method: as §1
Human PKK (1.78 nM or 0.025 U/mL; Enzyme Research Laboratories) was incubated at 24° C. with 0.25 mM fluorogenic substrate H-Pro-Phe-Arg-AMC (11295 from Bachem) and various concentrations of the test compound in assay buffer. Measurements were performed in a kinetic interval every 2nd minute for 16 min using a Spectramax M5 (Molecular Devices) with the following settings of the wavelength excitation of 350 nm and wavelength emission of 450 nm. The number of the compound corresponds to the number of the Example in the experimental section.
(§2) The pIC50 values were then fitted using a four-parametric fitting procedure using GraphPad Prism (version 6; GraphPad Software, Inc.). Respective Ki values were obtained by correction of the IC50 values for the respective KM value of the used substrate (see Table A for the obtained KM values of the used substrates) using the following formula: […]
Where the IC50 is in mol/L and the KM value in mmol/L.

[4] = target: human TK1 (Homo sapiens (Human), UniProt P06870); test: Inhibition of TK1 (Ki); details: substrate KM, enzyme TK1
Sequence of human TK1 (P06870 25-262): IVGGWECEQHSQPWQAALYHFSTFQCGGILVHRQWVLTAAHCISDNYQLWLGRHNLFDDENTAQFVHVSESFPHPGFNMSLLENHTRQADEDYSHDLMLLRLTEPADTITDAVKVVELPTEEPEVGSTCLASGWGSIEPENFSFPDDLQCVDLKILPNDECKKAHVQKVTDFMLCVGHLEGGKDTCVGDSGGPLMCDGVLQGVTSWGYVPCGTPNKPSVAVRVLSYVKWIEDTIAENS
Method: as §1
Prior to the assay, human TK1 (R&D Systems) was activated by incubation with human trypsin (Calbiochem) in a 1:10,000 ratio for 15 min at 37° C. For assaying TK1 inhibitory activity, activated TK1 (31.25 nM or 1 U/mL) was incubated at 24° C. with 0.1 mM fluorogenic substrate H-Pro-Phe-Arg-AMC (11295 from Bachem) and various concentrations of the test compound in assay buffer. Measurements were performed in a kinetic interval every 2nd minute for 16 min using a Spectramax M5 (Molecular Devices) with the following settings of the wavelength excitation of 350 nm and wavelength emission of 450 nm.
(§3) The pIC50 values were then fitted using a four-parametric fitting procedure using GraphPad Prism (version 6; GraphPad Software, Inc.). […]

[5] = target: Human plasmin (Homo sapiens (Human), UniProt P00747); test: Inhibition of plasmin (Ki); details: substrate KM, enzyme Plasmin
Sequence of Human plasmin (P00747 581-810): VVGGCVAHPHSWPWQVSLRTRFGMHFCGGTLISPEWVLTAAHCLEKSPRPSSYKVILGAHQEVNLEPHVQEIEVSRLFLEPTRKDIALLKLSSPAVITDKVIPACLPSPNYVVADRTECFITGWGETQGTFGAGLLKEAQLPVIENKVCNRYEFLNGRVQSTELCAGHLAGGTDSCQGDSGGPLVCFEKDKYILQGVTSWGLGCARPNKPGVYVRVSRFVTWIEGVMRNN
Sequence of Human plasmin (P00747 97-580 partner): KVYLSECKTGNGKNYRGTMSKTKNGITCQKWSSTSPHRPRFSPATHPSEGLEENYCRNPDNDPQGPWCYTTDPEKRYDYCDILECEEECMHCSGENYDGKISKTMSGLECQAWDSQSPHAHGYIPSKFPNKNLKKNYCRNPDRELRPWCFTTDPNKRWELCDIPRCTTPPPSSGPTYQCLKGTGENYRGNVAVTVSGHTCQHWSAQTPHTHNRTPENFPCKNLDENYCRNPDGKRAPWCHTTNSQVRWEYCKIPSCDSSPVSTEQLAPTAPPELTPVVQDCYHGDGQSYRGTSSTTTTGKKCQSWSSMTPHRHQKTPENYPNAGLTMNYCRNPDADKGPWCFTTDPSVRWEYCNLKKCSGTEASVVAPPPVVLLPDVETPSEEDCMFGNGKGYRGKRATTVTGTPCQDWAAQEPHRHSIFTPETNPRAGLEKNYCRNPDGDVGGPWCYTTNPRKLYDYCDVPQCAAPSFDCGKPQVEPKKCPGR
Method: as §1
Measurements were performed in a kinetic interval every 2nd minute for 16 min using a Spectramax M5 (Molecular Devices) measuring the optical absorbance at 405 nm.
as §2

[6] = target: Human FXIIa (Homo sapiens (Human), UniProt P00748); test: Inhibition of FXIIa (Ki); details: substrate KM, enzyme FXIIa
Sequence of Human FXIIa (P00748 373-615): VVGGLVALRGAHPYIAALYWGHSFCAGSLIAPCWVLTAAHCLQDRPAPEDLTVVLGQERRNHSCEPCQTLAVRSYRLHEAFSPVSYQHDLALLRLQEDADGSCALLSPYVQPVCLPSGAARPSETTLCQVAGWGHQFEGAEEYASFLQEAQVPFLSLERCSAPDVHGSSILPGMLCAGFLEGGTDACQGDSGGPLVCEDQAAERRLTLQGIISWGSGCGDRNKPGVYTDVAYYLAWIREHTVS
Sequence of Human FXIIa (P00748 20-372 partner): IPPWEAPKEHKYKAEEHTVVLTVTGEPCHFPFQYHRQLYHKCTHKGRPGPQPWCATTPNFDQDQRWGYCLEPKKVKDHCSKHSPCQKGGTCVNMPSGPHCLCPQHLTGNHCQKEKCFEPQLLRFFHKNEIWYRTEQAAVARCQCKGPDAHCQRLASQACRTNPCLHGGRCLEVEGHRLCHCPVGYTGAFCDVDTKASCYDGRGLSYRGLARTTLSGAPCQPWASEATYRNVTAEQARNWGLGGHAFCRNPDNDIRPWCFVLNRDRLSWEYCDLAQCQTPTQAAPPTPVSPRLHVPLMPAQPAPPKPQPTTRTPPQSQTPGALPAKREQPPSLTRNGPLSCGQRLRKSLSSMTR
Method: as §1
(§4) Human FXIIa (47.5 nM or 1.1 U/mL; Enzyme Research Laboratories) was incubated at 24° C. with 0.5 mM chromogenic Substrate S2302 (Chromogenix) and various concentrations of the test compound in assay buffer. Measurements were performed in a kinetic interval every 2nd minute for 16 min using a Spectramax M5 (Molecular Devices) measuring the optical absorbance at 405 nm.
as §2

[7] = target: Human FXa (Homo sapiens (Human), UniProt P00742); test: Inhibition of FXa (Ki); details: substrate KM, enzyme FXa
Sequence of Human FXa (P00742 235-488): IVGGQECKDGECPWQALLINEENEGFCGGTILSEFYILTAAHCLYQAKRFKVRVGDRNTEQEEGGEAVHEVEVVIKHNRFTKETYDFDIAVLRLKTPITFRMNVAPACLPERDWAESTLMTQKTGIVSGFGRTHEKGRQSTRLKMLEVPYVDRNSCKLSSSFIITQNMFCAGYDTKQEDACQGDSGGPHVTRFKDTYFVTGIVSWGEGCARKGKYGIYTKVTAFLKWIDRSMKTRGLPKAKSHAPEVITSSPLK
Sequence of Human FXa (P00742 41-179 partner): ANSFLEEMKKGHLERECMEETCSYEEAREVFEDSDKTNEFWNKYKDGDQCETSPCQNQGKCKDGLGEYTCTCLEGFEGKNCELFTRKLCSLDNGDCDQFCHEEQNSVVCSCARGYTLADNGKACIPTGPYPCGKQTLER
Method: as §1
as §4, with “FXa (0.86” for “FXIIa (47.5”, “0.01” for “1.1”, “S2765” for “S2302”
as §2

[8] = target: Human FVIIa (Homo sapiens (Human), UniProt P08709); test: Inhibition of FVIIa (Ki); details: substrate KM, enzyme FVIIa
Sequence of Human FVIIa (P08709 213-466): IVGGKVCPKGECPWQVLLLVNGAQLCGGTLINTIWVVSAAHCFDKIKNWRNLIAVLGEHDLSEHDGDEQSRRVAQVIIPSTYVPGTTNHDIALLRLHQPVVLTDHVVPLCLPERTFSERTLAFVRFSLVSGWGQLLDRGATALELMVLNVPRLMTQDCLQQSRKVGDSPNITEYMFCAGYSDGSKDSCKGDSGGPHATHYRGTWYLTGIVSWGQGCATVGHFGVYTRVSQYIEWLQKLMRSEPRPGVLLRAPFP
Sequence of Human FVIIa (P08709 61-212 partner): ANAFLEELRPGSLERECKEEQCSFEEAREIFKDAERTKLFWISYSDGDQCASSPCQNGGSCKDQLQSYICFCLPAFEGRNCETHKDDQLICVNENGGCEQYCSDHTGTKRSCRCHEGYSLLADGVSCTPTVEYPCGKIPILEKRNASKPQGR
Method: as §1
as §4, with “FVIIa (0.86” for “FXIIa (47.5”, “0.01” for “1.1”, “1.5” for “0.5”, “Pefachrome® FVIIa (Loxo)” for “Substrate S2302 (Chromogenix)”
as §2

[9] = target: FVIIa/TF/PL/CaCl2 (Homo sapiens (Human), UniProt P08709); test: Inhibition of FVIIa/TF/PL/CaCl2 (Ki); details: substrate KM, enzyme FVIIa/TF/PL/CaCl2
Sequence of FVIIa/TF/PL/CaCl2 (P08709 213-466): as the sequence (P08709 213-466) above
Sequence of FVIIa/TF/PL/CaCl2 (P08709 61-212 partner): as the sequence (P08709 61-212 partner) above
Sequence of FVIIa/TF/PL/CaCl2 (P13726 33-295 partner): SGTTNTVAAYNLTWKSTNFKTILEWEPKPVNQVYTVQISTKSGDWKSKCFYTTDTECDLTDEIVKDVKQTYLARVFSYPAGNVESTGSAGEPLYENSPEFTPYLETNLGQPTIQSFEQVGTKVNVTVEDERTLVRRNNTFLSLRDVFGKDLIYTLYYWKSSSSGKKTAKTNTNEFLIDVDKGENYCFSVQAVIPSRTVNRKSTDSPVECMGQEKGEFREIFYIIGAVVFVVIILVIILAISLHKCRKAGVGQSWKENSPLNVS
Method: as §1
Human FVIIa (300 nM or 585 U/mL; Enzyme Research Laboratories) together with 10 mM CaCl2)*2H2O and 13.3% (v/v) Dade®Innovin® (Siemens; OQUMI94E0002(5534), which contains recombinant human tissue factor synthetic phospholipids (thromboplastin), was incubated at 24° C. with 1.5 mM chromogenic Pefachrome® FVIIa (Loxo) and various concentrations of the test compound in assay buffer. Measurements were performed in a kinetic interval every 2nd minute for 16 min using a Spectramax M5 (Molecular Devices) measuring the optical absorbance at 405 nm.
as §3

SMILES	IC50 [1] [nM]	IC90 [2] [nM]	Ki [3] [nM]	other results
Cc1nc(N2CC3CC3C2)ccc1Cn1cc(C(=O)NCc2cc(Cl)c(F)cc2-n2cnnn2)cn1 (stereo not drawn) [Example 2]	5	1150	0.8	
Cc1nc(N2CC3CC3C2)ccc1Cn1cc(C(=O)NCc2c(-n3cnnn3)ccc(Cl)c2F)cn1 (stereo not drawn) [Example 3]	0.4	170	0.2	
Cc1ccc(-n2cnnn2)c(CNC(=O)c2cnn(Cc3ccc(N4CC5CC5C4)nc3C)c2)c1 (stereo not drawn) [Example 5]	0.9	316	0.4	
Cc1nc(N2CC3CC3C2)ccc1Cn1cc(C(=O)NCc2cc(Cl)ccc2-n2cnnn2)c(C(F)F)n1 (stereo not drawn) [Example 9]	1	239	0.8	
COCc1nn(Cc2ccc(N3CC4CC4C3)nc2C)cc1C(=O)NCc1cc(Cl)ccc1-n1cnnn1 (stereo not drawn) [Example 13]	0.9	396	0.8	
Cc1nc(N2CC3CC3C2)ccc1Cn1cc(C(=O)NCc2cc(Cl)ccc2-n2cnnn2)c2cncnc21 (stereo not drawn) [Example 15]	2	419	0.7	
COc1nn(Cc2ccc(N3CC4CC4C3)nc2C)cc1C(=O)NCc1cc(Cl)ccc1-n1cnnn1 (stereo not drawn) [Example 21]	3	713	1	
Cc1nc(N2CC3CC3C2)ccc1Cn1cc(C(=O)NCc2cc(Cl)ccc2-n2cnnn2)c(-c2cnn(C)c2)n1 (stereo not drawn) [Example 42]	0.6	257	1	
O=C(NCc1cc(Cl)ccc1-n1cnnn1)c1cn(Cc2ccc(N3CC4CC4C3)nc2)nc1C(F)F (stereo not drawn) [Example 44]	1	341	0.5	
O=C(NCc1cc(Cl)ccc1-n1cnnn1)c1cn(Cc2ccc(N3CC4CC4C3)nc2)c2ncccc12 (stereo not drawn) [Example 45]	3	106	0.3	
Cn1cc(-c2nn(Cc3ccc(N4CC5CC5C4)nc3)cc2C(=O)NCc2cc(Cl)ccc2-n2cnnn2)cn1 (stereo not drawn) [Example 46]	0.7	341	1	
COc1nn(Cc2ccc(N3CC4CC4C3)nc2)cc1C(=O)NCc1cc(Cl)ccc1-n1cnnn1 (stereo not drawn) [Example 47]	3	711	0.7	
Cc1nc(N2CC3CC3C2)ccc1Cn1cc(C(=O)NCc2cc(Cl)ccc2-n2cnnn2)c(N)n1 (stereo not drawn) [Example 48]	0.8	316	0.5	
Cc1nc(N2CC3CC3C2)ccc1Cn1cc(C(=O)NCc2cc(Cl)ccc2-n2cnnn2)c(Br)n1 (stereo not drawn) [Example 49]	1	932	0.4	
Nc1nn(Cc2ccc(N3CC4CC4C3)nc2)cc1C(=O)NCc1cc(Cl)ccc1-n1cnnn1 (stereo not drawn) [Example 52]	0.6	103	0.4	
Cc1nc(N2CC3(C2)CC3(F)F)ccc1Cn1cc(C(=O)NCc2cc(Cl)ccc2-n2cnnn2)cn1 [Example 54]	3	969	1	
Cc1nc(N2CC3(CCC3)C2)ccc1Cn1cc(C(=O)NCc2cc(Cl)ccc2-n2cnnn2)cn1 [Example 59, 1-[(6-{2-azaspiro[3.3]heptan-2-yl}-2-methylpyridin-3-yl)methyl]-N-{[5-chloro-2-(1H-1,2,3,4-tetrazol-1-yl)phenyl]methyl}-1H-pyrazole-4-carboxamide]	0.7	847	0.3	
Cc1nc(N2CCC3(CCC3)C2)ccc1Cn1cc(C(=O)NCc2cc(Cl)ccc2-n2cnnn2)cn1 [Example 60, 1-[(6-{6-azaspiro[3.4]octan-6-yl}-2-methylpyridin-3-yl)methyl]-N-{[5-chloro-2-(1H-1,2,3,4-tetrazol-1-yl)phenyl]methyl}-1H-pyrazole-4-carboxamide]	4	4070	2	
Cc1nc(N2CC3(CC3)C2)ccc1Cn1cc(C(=O)NCc2cc(Cl)ccc2-n2cnnn2)cn1 [Example 63, 1-[(6-{5-azaspiro[2.3]hexan-5-yl}-2-methylpyridin-3-yl)methyl]-N-{[5-chloro-2-(1H-1,2,3,4-tetrazol-1-yl)phenyl]methyl}-1H-pyrazole-4-carboxamide]	0.5	209	0.3	
Cc1nc(N2C[C@@H]3[C@H](C)[C@@H]3C2)ccc1Cn1cc(C(=O)NCc2cc(Cl)ccc2-n2cnnn2)cn1 [Example 87]	0.9	252	0.8	
Cc1cc(=O)oc2cc(NC(=O)[C@H](CCCNC(=N)N)NC(=O)[C@H](Cc3ccccc3)NC(=O)[C@@H]3CCCN3)ccc12 [Example I1295, H-Pro-Phe-Arg-AMC] (H-Pro-Phe-Arg-{AMC})				Km [4]: 70 µM
CC(C)C[C@H](NC(=O)[C@H](N)C(C)C)C(=O)N[C@@H](CCCCN)C(=O)Nc1ccc([N+](=O)[O-])cc1 [Example S2251] (H-[dV]-Leu-Lys-pNA)				Km [5]: 1450 µM
N=C(N)NCCC[C@H](NC(=O)[C@H](Cc1ccccc1)NC(=O)[C@H]1CCCN1)C(=O)Nc1ccc([N+](=O)[O-])cc1 [Example S2302] (H-[dP]-Phe-Arg-pNA)				Km [6]: 200 µM
NC(N)=NCCC[C@H](NC(=O)CNC(=O)[C@@H](CCCN=C(N)N)NC(=O)OCc1ccccc1)C(=O)Nc1ccc([N+](=O)[O-])cc1 [Example S2765] (Cbz-[dR]-Gly-Arg-pNA)				Km [7]: 1310 µM
CCC(NC(=O)C(CC1CCCCC1)NS(C)(=O)=O)C(=O)NC(CCCN=C(N)N)C(=O)Nc1ccc([N+](=O)[O-])cc1 (stereo not drawn) [Pefachrome ® FVIIa] (Ms-[Cha]-[Abu]-Arg-pNA; configuration not given here)				Km [8]: 420 µM; Km [9]: 3920 µM
